In experiment [1] the test system is HUVE cells. Description: Quantification of HUVE cell adhesion on gold-patterned silicon substrates (cell coverage, single cell ratio). The note with it: HUVE cells cultured 18 hours; 20 μm gold squares; 378 cell adhesion regions. In kind it is cell-based, human. The procedure:
Thus, quantification of single cell coverage is necessary for understanding the capability of this peptide-mediated cell adhesion process. HUVE cells were cultured on fibronectin and peptide modified platforms in standard culture media for 18 hours and stained with DAPI for cell nuclei to emit blue fluorescence. Fluorescence microscopy was used to identify single or multiple cells on gold square-based cell adhesion regions. Cell coverage and single cell population for each type of surface were quantified from 378 gold square-based cell adhesion regions (3 samples×2 areas of interest with 63 cell adhesion regions per area). Cell coverage was calculated from the ratio of gold square-based cell adhesion regions covered with cells to the total number of the cell adhesion regions in the area of interest, and single cell ratio was obtained by dividing the number of gold square-based cell adhesion regions covered with single cells to the total number of cell adhesion regions covered with cells (single or multiple). Exemplary images of adhered cells on three model platforms are shown in FIGS. 9A-D, and quantification results are shown in Table 1. As expected, the fibronectin and KREDVY modified surfaces have higher cell coverage than the REDVY modified surface due to larger number binding domains available on the former two surfaces than on the latter. Both peptide modified surfaces have much higher single cell ratios than the fibronectin modified surface. Clearly, the KREDVY modified surface is the best candidate for single cell patterning in light of both cell coverage and single cell ratio. As a side note, for electrical recording, it is easy to distinguish between single and multiple cells, allowing either type of site to be observed selectively.
HUVE cells were cultured in EGM-2 medium supplemented with bovine brain extract (BBE), hydrocortisone, hFGF-B, VEGF, R3-IGF-1, ascorbic acid, heparin, FBS, hEGF, and GA-1000. The final serum concentration was 2%. Cells were seeded on culture flasks at passage 1 and the medium was changed after 24 hours. At 70% confluency, cells were subcultured as follows. After aspiration from culture flasks, cells were rinsed with 2-3 ml of HEPES-BSS buffer solution for 3 times, followed by incubation with 2 ml of trypsin/EDTA solution. The trypsinization process continued until about 90% of the cells were collected. After cells were released, the trypsin was neutralized in the flask with 4 ml of TNS, and the detached cells were transferred to a 15-ml sterile centrifuge tube. The harvested cells were centrifuged at 220 g for 5 minutes. Cells were diluted in growth medium. Cells at a concentration of 1.5×10^5 cells/ml were seeded on the substrates. The substrates were incubated for 18 hours before fixation with a mixture of 2% glutaraldehyde and paraformaldehyde in phosphate buffer solution for optical microscopy and with 4% paraformaldehyde for fluorescence microscopy.

Experiment [2] concerns HUVE cells. Description: Cell viability assay (apoptosis and necrosis, Annexin V / propidium iodide) of patterned HUVE cells. The note with it: after 7 days of cell adhesion. Type of experiment: cell-based, human. From the text:
Retaining cell viability after cell adhesion is essential for cell biology studies and biomedical applications such as cell-based sensors and drug screening microarrays. The viability of cells patterned on the three model platforms were studied with an apoptosis assay noted in EXAMPLE section. FIGS. 10A-F show fluorescence images of HUVE cells on cell patterning platforms immobilized with (a) fibronectin, (b) REDVY peptide, and (c) KREDVY peptide after 7 days of cell adhesion. Cells on the platform with chemically bound fibronectin appeared apoptotic and necrotic (FIGS. 10A and 10D). This might be caused by the competitive adhesion of multiple cells on a limited surface area of the gold square-based cell adhesion regions, hindering individual cell growth and survival. […] Because the conformation of fibronectin protein on the gold square-based cell adhesion regions varies from site to site, the degree of interactions of HUVE cells with the binding peptides of the protein and the number of cells attached on each site can differ from pattern to pattern.
VYBRANT apoptosis assay allows for the simultaneous visualization of viable, necrotic, and apoptotic cells on substrates. Necrosis results from direct cell damage; apoptosis is genetically-programmed cell death in which cells effectively commit suicide. […] The substrates were incubated with 100 μL of Annexin V and 2 μL of PI solution for 15 minutes at room temperature, washed twice with binding buffer, and imaged with a fluorescence microscope.

For experiment [3], the system named is RAW264.7 cells (murine monocyte/macrophage). Briefly: Synchrotron FTIR spectromicroscopy of patterned macrophage cells exposed to LPS. The note with it: for peak of amide I group post-exposure: single cells, eight electrodes of two substrates. In kind it is cell-based. The text has this:
Cells in an isolated state (e.g., one cell on each microelectrode) generally respond differently to an external stimulus than when they are in a communicating state (e.g., a cluster of cells on a microelectrode).
IR spectra and optical reflectance DIC images were acquired from cells on the patterned substrates with single or a group of macrophage cells on each electrode both before and after cellular exposure to LPS. Synchrotron FTIR spectra were acquired from cell-patterned surfaces with a Nicolet Magna 760 FTIR bench and a Nicolet Nic-Plan™ IR microscope equipped with a computer-controlled x-y-z sample stage (via Nicolet Atlμs™ and OMNIC software) and an MCT-A detector at Beamline 1.4.3 of the Advanced Light Source (ALS) in Lawrence Berkeley National Laboratory, Berkeley. C A. Martin, M. C. and McKinney, R. W., Proceed. Mater. Res. Soc. 524, 11-15, 1998; C A. Martin, M. C. and McKinney, R. W., Proceedings of the Low Energy Electrodynamics in Solids, '99 Conference, Pécs, Hungary, Special Issue of Ferroelectrics, 249, 1-10, 2001. In order to align the incident IR beam onto the substrate, an IR map (with 2-10 μm step size in x-y plane) was acquired around a gold electrode for a full IR range of 400-10,000 wave numbers. Under this condition, the whole spectrum appeared as a broad peak and an intensity profile was given for the mapped region. The x, y positions were adjusted so that the highest intensity region of the beam was aligned with the center of the gold electrode. The samples were measured at wave numbers of 650-10,000 cm^−1 using an XT-KBr beamsplitter and an MCT detector. The synchrotron infrared light is focused to a diffraction-limited spot size with a wavelength-dependent diameter of approximately 3-10 μm across the mid-IR range of interest. Carr, G. L. Review of Scientific Instruments 72, 1613-1619, 2001; and Dumas, P., et al., Faraday Discussions 126, 289-302, 2004. An on-stage temperature controlled mini incubator was used to maintain a proper environment for cellular analysis. Prior to infrared analysis, dead and loosely bound cells were removed from the substrate by three PBS washes (to eliminate the possible interference of dead and loosely bound cells to the real-time signals generated by live cells), the cell culture medium was replaced with fresh sterile medium, and the substrate covered with a layer of the medium was transferred to the mini incubator. The spectra were acquired in less than 10 minutes following the sample transfer to ensure cell viability and to minimize possible interference from environmental changes. Synchrotron FTIR spectra of 128 scans at a resolution of 8 cm^−1 were acquired from individual electrodes patterned with cells. Background signals were collected from the silicon oxide surface of the same substrate right before the data collection. […] All spectra were baseline-corrected and normalized to account for the continuous decay of the synchrotron beam in the storage ring. An appropriately scaled water vapor spectrum was subtracted from the spectra of cells. The spectra obtained with conventional FTIR were acquired from cell-patterned surfaces using a Thermo-Electron Nexus 870 bench and a Thermo-Electron Continuum infrared microscope with an MCT-A detector at Beamline 1.4.4 of the ALS under the same conditions set for the synchrotron measurements, except that an aperture size of 90 μm×90 μm were employed to maximize the signal intensity.

Experiment [4] shares this test system. Briefly: DIC reflectance microscopy of macrophage morphology after LPS exposure. Particulars: LPS 0.1, 1.0 and 10 μg/mL, 21 hours. Type of experiment: cell-based. From the text:
Cell-cultured surfaces were examined with a differential interference contrast (DIC) reflectance microscope (Nikon E800 Upright Microscope, NY, N.Y.) equipped with DIC-20× (N.A. 0.46) and DIC-50× (N.A. 0.8) objectives. Images were acquired with a Coolsnap camera (series A99G81021, Roper Scientific Inc., AZ, USA) attached to the microscope and a computer. […] FIGS. 12A, 12C, and 12E are optical DIC images of electrodes with a single cell, double cells, and triple cells, respectively.

[5] abbreviates: LPS 1 μg/mL, 21 hours, 10 μm×10 μm electrodes, mean±S.D. of four electrodes.

Where no end group is shown, it is not given here.

The values that follow come from patent US10119958B2, “Arrays and methods for guided cell patterning” (University of Washington, priority 2007, dated 2018).

Take Fibronectin: in the experiment on HUVE cells [1], the “% Cell Coverage” value is on record as 83.47 ± 3.20% and the “% Ratio of single-cell sites/total cell sites” value stood at 27.41 ± 3.64%. For the same substance, in the experiment with HUVE cells [2], the “cell apoptosis / viability (Annexin V)” value is recorded as “apoptotic” and the “cell necrosis (propidium iodide)” value is given as “necrotic”.

Take KREDVY: in the experiment on HUVE cells [1], the “% Cell Coverage” value amounted to 78.40 ± 3.96% and the “% Ratio of single-cell sites/total cell sites” value was determined as 72.17 ± 2.49%. Further, in the experiment with HUVE cells [2], the “cell apoptosis / viability (Annexin V)” value was “remained viable throughout 7 days” and the “cell necrosis (propidium iodide)” value is “No cell necrosis was observed”.

With lipopolysaccharide [LPS], in experiment [3] (setting [5]), the “Amide I wave number, Double cells” value was 1665 ± 2.6 cm⁻¹; the “Amide I wave number, Single cell” value was found to be 1661 ± 1.6 cm⁻¹; the “Amide I wave number, Triple cells” value was 1658 ± 3.4 cm⁻¹. Also, the “peak of amide I group post-exposure” value in experiment [3] (0.1 μg/mL LPS, 21 hours) was 1659 ± 1.7 cm⁻¹. Besides, the “peak of amide I group post-exposure” value in experiment [3] (1 μg/mL LPS, 21 hours) is 1661 ± 1.0 cm⁻¹. Moreover, the “peak of amide I group post-exposure” value in experiment [3] (10 μg/mL LPS, 21 hours) came out at 1676 ± 1.0 cm⁻¹. The “shift in wave number” value in experiment [3] (single-cell platform, LPS 1.0 μg/mL) stood at 30 cm⁻¹. Also, in experiment [4], the cell morphology entry is “enlarged, dendritic-like shape”.

For the substance Arg-Glu-Asp-Val-Tyr (REDVY), in the experiment with HUVE cells [1], the “% Cell Coverage” value was 56.28 ± 3.03% and the “% Ratio of single-cell sites/total cell sites” value is 62.25 ± 3.23%. In addition, in the experiment with HUVE cells [2], the “cell apoptosis / viability (Annexin V)” value is “became apoptotic at day 7” and the “cell necrosis (propidium iodide)” value was “No cell necrosis was observed”.
